{"source": "PubChem BioAssay (NCI)", "experiment_in_all_cases": "inhibition of tumour cell growth, NCI panel, 48 h", "key": {"[1]": {"tested_on": "SF-268 CNS"}, "[2]": {"tested_on": "EKVX NSCLC"}, "[3]": {"tested_on": "M14 melanoma"}, "[4]": {"tested_on": "HT29 colon"}, "[5]": {"tested_on": "MOLT-4 leukemia"}, "[6]": {"tested_on": "HOP-62 NSCLC"}, "[7]": {"tested_on": "HS 578T breast"}, "[8]": {"tested_on": "UACC-257 melanoma"}, "[9]": {"tested_on": "CCRF-CEM leukemia"}, "[10]": {"tested_on": "PC-3 prostate"}, "[11]": {"tested_on": "NCI-H23 lung"}, "[12]": {"tested_on": "K-562 leukemia"}, "[13]": {"tested_on": "OVCAR-3 ovarian"}, "[14]": {"tested_on": "OVCAR-8 ovarian"}, "[15]": {"tested_on": "TK-10 renal"}, "[16]": {"tested_on": "BT-549 breast"}, "[17]": {"tested_on": "MCF7 breast"}, "[18]": {"tested_on": "UO-31 renal"}, "[19]": {"tested_on": "NCI-H226 lung"}, "[20]": {"tested_on": "SK-OV-3 ovarian"}, "[21]": {"tested_on": "HCT-116 colon"}, "[22]": {"tested_on": "SK-MEL-28 melanoma"}, "[23]": {"tested_on": "A498 renal"}, "[24]": {"tested_on": "COLO 205 colon"}, "[25]": {"tested_on": "UACC-62 melanoma"}, "[26]": {"tested_on": "786-0 renal"}, "[27]": {"tested_on": "NCI-H522 lung"}, "[28]": {"tested_on": "IGROV1 ovarian"}, "[29]": {"tested_on": "LOX IMVI melanoma"}, "[30]": {"tested_on": "OVCAR-4 ovarian"}, "[31]": {"tested_on": "NCI/ADR-RES ovarian"}, "[32]": {"tested_on": "SK-MEL-5 melanoma"}, "[33]": {"tested_on": "CAKI-1 renal"}, "[34]": {"tested_on": "SF-539 CNS"}, "[35]": {"tested_on": "A549 NSCLC"}, "[36]": {"tested_on": "KM12 colon"}, "[37]": {"tested_on": "U251 CNS"}, "[38]": {"tested_on": "HOP-92 NSCLC"}, "[39]": {"tested_on": "RXF 393 renal"}, "[40]": {"tested_on": "HCT-15 colon"}, "[41]": {"tested_on": "T-47D breast"}, "[42]": {"tested_on": "SN12C renal"}, "[43]": {"tested_on": "MALME-3M melanoma"}, "[44]": {"tested_on": "SK-MEL-2 melanoma"}, "[45]": {"tested_on": "HL-60(TB) leukemia"}, "[46]": {"tested_on": "SW-620 colon"}, "[47]": {"tested_on": "DU-145 prostate"}, "[48]": {"tested_on": "OVCAR-5 ovarian"}, "[49]": {"tested_on": "NCI-H460 lung"}, "[50]": {"tested_on": "RPMI-8226 leukemia"}, "[51]": {"tested_on": "SF-295 CNS"}, "[52]": {"tested_on": "ACHN renal"}, "[53]": {"tested_on": "MDA-MB-435"}, "[54]": {"tested_on": "SNB-19 CNS"}, "[55]": {"tested_on": "SR leukemia"}, "[56]": {"tested_on": "MDA-MB-231 breast"}}, "note": "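Following 48 hours of exposure in 96-well plates, responses at five concentrations were used to interpolate endpoints linearly. Here, GI50 denotes the concentration required for 50% inhibition of growth. TGI marks complete inhibition of growth.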"}
{"compound": "COc1ccc(C2=C(c3ccc(OC)c(OC)c3)C(=O)OC2)cc1", "values": [{"measurement": "GI50", "setting": "[1]", "result": 106, "unit": "nM"}, {"measurement": "TGI", "setting": "[1]", "result": "> 91.7", "unit": "µM"}, {"measurement": "GI50", "setting": "[2]", "result": 1950, "unit": "nM"}, {"measurement": "TGI", "setting": "[2]", "result": "> 100", "unit": "µM"}, {"measurement": "GI50", "setting": "[3]", "result": "< 10", "unit": "nM"}, {"measurement": "TGI", "setting": "[3]", "result": "> 36.4", "unit": "µM"}, {"measurement": "GI50", "setting": "[4]", "result": "< 10", "unit": "nM"}, {"measurement": "TGI", "setting": "[4]", "result": "> 100", "unit": "µM"}, {"measurement": "GI50", "setting": "[5]", "result": "< 20.8", "unit": "nM"}, {"measurement": "GI50", "setting": "[6]", "result": "< 10", "unit": "nM"}, {"measurement": "GI50", "setting": "[7]", "result": 255, "unit": "nM"}, {"measurement": "TGI", "setting": "[7]", "result": 792, "unit": "nM"}, {"measurement": "GI50", "setting": "[8]", "result": "> 47.4", "unit": "µM"}, {"measurement": "TGI", "setting": "[8]", "result": "> 100", "unit": "µM"}, {"measurement": "GI50", "setting": "[9]", "result": 206, "unit": "nM"}, {"measurement": "TGI", "setting": "[9]", "result": 826, "unit": "nM"}, {"measurement": "GI50", "setting": "[10]", "result": "< 30.1", "unit": "nM"}, {"measurement": "TGI", "setting": "[10]", "result": "> 100", "unit": "µM"}, {"measurement": "GI50", "setting": "[11]", "result": 23, "unit": "nM"}, {"measurement": "TGI", "setting": "[11]", "result": "> 100", "unit": "µM"}, {"measurement": "GI50", "setting": "[12]", "result": "< 10", "unit": "nM"}, {"measurement": "GI50", "setting": "[13]", "result": 177, "unit": "nM"}, {"measurement": "TGI", "setting": "[13]", "result": 389, "unit": "nM"}, {"measurement": "GI50", "setting": "[14]", "result": 45.1, "unit": "nM"}, {"measurement": "TGI", "setting": "[14]", "result": "> 100", "unit": "µM"}, {"measurement": "TGI", "setting": "[15]", "result": 16.5, "unit": "µM"}, {"measurement": "GI50", "setting": "[16]", "result": 3.55, "unit": "µM"}, {"measurement": "TGI", "setting": "[16]", "result": "> 100", "unit": "µM"}, {"measurement": "TGI", "setting": "[17]", "result": "> 48.8", "unit": "µM"}, {"measurement": "GI50", "setting": "[18]", "result": 116, "unit": "nM"}, {"measurement": "TGI", "setting": "[18]", "result": "> 85.9", "unit": "µM"}, {"measurement": "GI50", "setting": "[19]", "result": 16.9, "unit": "nM"}, {"measurement": "TGI", "setting": "[19]", "result": 2920, "unit": "nM"}, {"measurement": "TGI", "setting": "[20]", "result": "> 100", "unit": "µM"}, {"measurement": "GI50", "setting": "[21]", "result": "< 10", "unit": "nM"}, {"measurement": "TGI", "setting": "[21]", "result": "> 100", "unit": "µM"}, {"measurement": "TGI", "setting": "[22]", "result": "> 100", "unit": "µM"}, {"measurement": "GI50", "setting": "[23]", "result": 80.3, "unit": "nM"}, {"measurement": "TGI", "setting": "[23]", "result": 42.3, "unit": "µM"}, {"measurement": "GI50", "setting": "[24]", "result": "< 23.8", "unit": "nM"}, {"measurement": "TGI", "setting": "[24]", "result": "> 68.1", "unit": "µM"}, {"measurement": "GI50", "setting": "[25]", "result": "< 10", "unit": "nM"}, {"measurement": "TGI", "setting": "[25]", "result": 13.2, "unit": "µM"}, {"measurement": "GI50", "setting": "[26]", "result": "< 10", "unit": "nM"}, {"measurement": "GI50", "setting": "[27]", "result": "< 40.6", "unit": "nM"}, {"measurement": "GI50", "setting": "[28]", "result": 76.8, "unit": "nM"}, {"measurement": "TGI", "setting": "[28]", "result": "> 62.8", "unit": "µM"}, {"measurement": "GI50", "setting": "[29]", "result": "< 10", "unit": "nM"}, {"measurement": "TGI", "setting": "[29]", "result": "> 39.1", "unit": "µM"}, {"measurement": "GI50", "setting": "[30]", "result": "> 58.4", "unit": "µM"}, {"measurement": "TGI", "setting": "[30]", "result": "> 100", "unit": "µM"}, {"measurement": "GI50", "setting": "[31]", "result": "< 10", "unit": "nM"}, {"measurement": "TGI", "setting": "[31]", "result": 1120, "unit": "nM"}, {"measurement": "GI50", "setting": "[32]", "result": "< 50", "unit": "nM"}, {"measurement": "TGI", "setting": "[32]", "result": 2570, "unit": "nM"}, {"measurement": "TGI", "setting": "[33]", "result": 4.89, "unit": "µM"}, {"measurement": "TGI", "setting": "[34]", "result": "> 24.2", "unit": "µM"}, {"measurement": "GI50", "setting": "[35]", "result": 133, "unit": "nM"}, {"measurement": "TGI", "setting": "[35]", "result": "> 100", "unit": "µM"}, {"measurement": "TGI", "setting": "[36]", "result": 3.34, "unit": "µM"}, {"measurement": "GI50", "setting": "[37]", "result": "< 10", "unit": "nM"}, {"measurement": "TGI", "setting": "[37]", "result": "> 59.6", "unit": "µM"}, {"measurement": "GI50", "setting": "[38]", "result": 3.48, "unit": "µM"}, {"measurement": "TGI", "setting": "[38]", "result": 32.6, "unit": "µM"}, {"measurement": "GI50", "setting": "[39]", "result": 79.2, "unit": "nM"}, {"measurement": "TGI", "setting": "[39]", "result": "> 100", "unit": "µM"}, {"measurement": "GI50", "setting": "[40]", "result": "< 10", "unit": "nM"}, {"measurement": "TGI", "setting": "[40]", "result": 28.6, "unit": "µM"}, {"measurement": "GI50", "setting": "[41]", "result": 1660, "unit": "nM"}, {"measurement": "TGI", "setting": "[41]", "result": "> 91.8", "unit": "µM"}, {"measurement": "GI50", "setting": "[42]", "result": 123, "unit": "nM"}, {"measurement": "TGI", "setting": "[42]", "result": "> 82.1", "unit": "µM"}, {"measurement": "TGI", "setting": "[43]", "result": "> 81", "unit": "µM"}, {"measurement": "TGI", "setting": "[44]", "result": "> 100", "unit": "µM"}, {"measurement": "TGI", "setting": "[45]", "result": 1510, "unit": "nM"}, {"measurement": "TGI", "setting": "[46]", "result": "> 100", "unit": "µM"}, {"measurement": "GI50", "setting": "[47]", "result": 185, "unit": "nM"}, {"measurement": "TGI", "setting": "[47]", "result": "> 100", "unit": "µM"}, {"measurement": "GI50", "setting": "[48]", "result": 545, "unit": "nM"}, {"measurement": "TGI", "setting": "[48]", "result": "> 100", "unit": "µM"}, {"measurement": "TGI", "setting": "[49]", "result": "> 100", "unit": "µM"}, {"measurement": "GI50", "setting": "[50]", "result": 49.7, "unit": "nM"}, {"measurement": "TGI", "setting": "[50]", "result": 329, "unit": "nM"}, {"measurement": "GI50", "setting": "[51]", "result": "< 49.6", "unit": "nM"}, {"measurement": "GI50", "setting": "[52]", "result": "< 13.5", "unit": "nM"}, {"measurement": "TGI", "setting": "[52]", "result": "> 100", "unit": "µM"}, {"measurement": "GI50", "setting": "[53]", "result": "< 46.3", "unit": "nM"}, {"measurement": "GI50", "setting": "[54]", "result": 263, "unit": "nM"}, {"measurement": "TGI", "setting": "[54]", "result": "> 100", "unit": "µM"}, {"measurement": "GI50", "setting": "[55]", "result": "< 10", "unit": "nM"}, {"measurement": "TGI", "setting": "[55]", "result": 19.2, "unit": "nM"}, {"measurement": "GI50", "setting": "[56]", "result": 682, "unit": "nM"}]}
